# Patent US11707477B2, “Formulation comprising a gemcitabine-prodrug” (NuCana plc, priority 2014, dated 2023)
# Values joined by “and” are separate entries in the source; they are usually repeats but may differ in a detail not shown here. Equal values may be shown once.
# Tests used:
# [1] = Solubility in a range of solvents on dilution; format: physicochemical
# Experimental: The protocol adopted was as follows:
# A small volume, 1-2 mL, of each solvent system was prepared and a weight of the compound in question was added. The solutions were stirred for approximately 4 hours and then […] membrane filtered. The concentration of the compound in question in the filtrate was then determined by HPLC assay.
# [2] = Effect of aqueous dilution on DMA solubility and physical stability; format: physicochemical
# Excerpt: Table 2 gives the effect of aqueous dilution on DMA solubility
# [3] = Clinical testing of 80:20 DMA:0.9% saline formulation; format: in vivo
# [4] = Preferred formulation system: stability; format: physicochemical
# Experimental: The final administration formulation is then prepared by diluting this second formulation to the desired concentration with saline.
# Solubility in water = format: physicochemical; conditions: regardless of salt content or pH
# [5] = DMA 45.8 mg/mL, 1:3 with 0.9% saline containing […] Tween 80
# [6] = DMA 45.8 mg/mL, 1:4.5 with 0.9% saline containing […] Tween 80
# [7] = DMA 55.0 mg/mL, 1:3 with 0.9% saline containing […] Tween 80
# [8] = DMA 73.3 mg/mL, 1:3 with 0.9% saline containing […] Tween 80
# [9] = DMA […] mg/mL, Solvent:Saline (0.9%) 1:3
# [10] = PEG 400 87.7 mg/mL, 1:1 glucose
# [11] = PEG 400 87.7 mg/mL, 1:2 glucose
# [12] = PEG 400, 45.6 mg/mL, 1:1.5 with 0.9% saline containing […] Tween 80
# [13] = PEG 400, 45.6 mg/mL, 1:2 with 0.9% saline containing […] Tween 80
# [14] = PEG 400, 45.6 mg/mL, 1:2.5 with 0.9% saline containing […] Tween 80
# [15] = PEG 400, 91.2 mg/mL, 1:2 with 0.9% saline containing […] Tween 80
# [16] = PEG 400, 91.2 mg/mL, Solvent:Saline (0.9%) 1:1
# [17] = PEG 400, 91.2 mg/mL, Solvent:Saline (0.9%) 1:2
structure (smiles),measurement,setting,value
"C[C@H](NP(=O)(OC[C@H]1O[C@@H](n2ccc(N)nc2=O)C(F)(F)C1O)Oc1ccccc1)C(=O)OCc1ccccc1 (stereo partly drawn) [NUC-1031, 2′-Deoxy-2′,2′-difluoro-D-cytidine-5′-O-[phenyl (benzoxy-L-alaninyl)]phosphate]",Appearance,[1]; [5],Clear
same,NUC-1031 mg/mL HPLC assay filtrate,[1]; [5],11.5 mg/mL
same,Appearance,"[1]; DMA 45.8 mg/mL, 1:3.5 with 0.9% saline containing […] Tween 80",Clear
same,NUC-1031 mg/mL HPLC assay filtrate,"[1]; DMA 45.8 mg/mL, 1:4 with 0.9% saline containing […] Tween 80",8.4 mg/mL
same,Appearance,"[1]; DMA 45.8 mg/mL, 1:4 with 0.9% saline containing […] Tween 80 (precipitates >30 min, stirring precipitate dissolves)",Initially clear
same,Appearance,[1]; [6],Slightly turbid
same,NUC-1031 mg/mL HPLC assay filtrate,[1]; [6],7.2 mg/mL
same,Appearance,[1]; [7],Slightly turbid
same,NUC-1031 mg/mL HPLC assay filtrate,[1]; [7],13.9 mg/mL
same,Appearance,[1]; [8],Precipitation
same,NUC-1031 mg/mL HPLC assay filtrate,[1]; [8],14.7 mg/mL
same,Appearance,"[1]; DMA 92.5 mg/mL, 1:1 glucose",Clear
same,Evidence of further precipitation on storage of filtrate at RT >24 h,"[1]; DMA 92.5 mg/mL, 1:1 glucose",No
same,NUC-1031 mg/mL HPLC assay filtrate,"[1]; DMA 92.5 mg/mL, 1:1 glucose",47.3 mg/mL
same,Appearance,"[1]; DMA 92.5 mg/mL, 1:2 glucose",Slightly turbid
same,Evidence of further precipitation on storage of filtrate at RT >24 h,"[1]; DMA 92.5 mg/mL, 1:2 glucose",Yes
same,NUC-1031 mg/mL HPLC assay filtrate,"[1]; DMA 92.5 mg/mL, 1:2 glucose",29.7 mg/mL
same,Appearance,[1]; [9],Precipitation
same,NUC-1031 mg/mL HPLC assay filtrate,[1]; [9],14.8 mg/mL
same,NUC-1031 mg/mL HPLC assay filtrate,"[1]; DMA […], 1:2 with 0.9% saline containing […] Tween 80",30.9 mg/mL
same,NUC-1031 mg/mL HPLC assay filtrate,"[1]; DMA […], 1:3 with 0.9% saline containing […] Tween 80",15.2 mg/mL
same,NUC-1031 mg/mL HPLC assay filtrate,"[1]; DMA […], Solvent:Saline (0.9%) 1:1",47.0 mg/mL
same,NUC-1031 mg/mL HPLC assay filtrate,"[1]; DMA […], Solvent:Saline (0.9%) 1:2",30.2 mg/mL
same,Appearance,"[1]; NMP 115.0 mg/mL, 1:1 glucose",Slightly turbid
same,Evidence of further precipitation on storage of filtrate at RT >24 h,"[1]; NMP 115.0 mg/mL, 1:1 glucose",No
same,NUC-1031 mg/mL HPLC assay filtrate,"[1]; NMP 115.0 mg/mL, 1:1 glucose",58.5 mg/mL
same,Appearance,"[1]; NMP 115.0 mg/mL, 1:1 saline",Slightly turbid
same,Evidence of further precipitation on storage of filtrate at RT >24 h,"[1]; NMP 115.0 mg/mL, 1:1 saline",No
same,NUC-1031 mg/mL HPLC assay filtrate,"[1]; NMP 115.0 mg/mL, 1:1 saline",60.0 mg/mL
same,Appearance,"[1]; NMP 115.0 mg/mL, 1:2 glucose",Slightly turbid
same,Evidence of further precipitation on storage of filtrate at RT >24 h,"[1]; NMP 115.0 mg/mL, 1:2 glucose",Yes
same,NUC-1031 mg/mL HPLC assay filtrate,"[1]; NMP 115.0 mg/mL, 1:2 glucose",39.6 mg/mL
same,Appearance,"[1]; NMP 115.0 mg/mL, 1:2 saline",Slightly turbid
same,Evidence of further precipitation on storage of filtrate at RT >24 h,"[1]; NMP 115.0 mg/mL, 1:2 saline",Yes
same,NUC-1031 mg/mL HPLC assay filtrate,"[1]; NMP 115.0 mg/mL, 1:2 saline",40.5 mg/mL
same,evidence of precipitation after dilution,"[1]; NMP and DMA solutions, dilution 1:1 with water or saline",did not show any evidence of precipitation
same,Appearance,[1]; [10],Slightly turbid
same,Evidence of further precipitation on storage of filtrate at RT >24 h,[1]; [10],Yes
same,NUC-1031 mg/mL HPLC assay filtrate,[1]; [10],46.1 mg/mL
same,Appearance,[1]; [11],Turbid
same,Evidence of further precipitation on storage of filtrate at RT >24 h,[1]; [11],No
same,NUC-1031 mg/mL HPLC assay filtrate,[1]; [11],17.4 mg/mL
same,Appearance,[1]; [12],Clear
same,Evidence of further precipitation on storage of filtrate at RT >24 h,[1]; [12],Yes
same,Appearance,[1]; [13],Clear
same,Evidence of further precipitation on storage of filtrate at RT >24 h,[1]; [13],Yes
same,Appearance,[1]; [14],"Precipitation,"
same,Evidence of further precipitation on storage of filtrate at RT >24 h,[1]; [14],Yes
same,NUC-1031 mg/mL HPLC assay filtrate,[1]; [14],10.5 mg/mL
same,Appearance,[1]; [15],Slightly turbid
same,Evidence of further precipitation on storage of filtrate at RT >24 h,[1]; [15],Yes
same,NUC-1031 mg/mL HPLC assay filtrate,[1]; [15],18.8 mg/mL
same,Appearance,[1]; [16],Clear
same,Evidence of further precipitation on storage of filtrate at RT >24 h,[1]; [16],Yes
same,Appearance,[1]; [17],Precipitation
same,Evidence of further precipitation on storage of filtrate at RT >24 h,[1]; [17],Yes
same,NUC-1031 mg/mL HPLC assay filtrate,[1]; [17],16.2 mg/mL
same,Assay,[2]; 50:50 DMA:0.9% Saline,66 mg/mL
same,Precipitation > 24 hours,[2]; 50:50 DMA:0.9% Saline,Yes
same,Assay,[2]; 60:40 DMA:0.9% Saline,293 mg/mL
same,Precipitation > 24 hours,[2]; 60:40 DMA:0.9% Saline,Yes
same,Assay,[2]; 70:30 DMA:0.9% Saline,339 mg/mL
same,Precipitation > 24 hours,[2]; 70:30 DMA:0.9% Saline,Yes
same,Precipitation (2 weeks),"[2]; 80:20 DMA in 0.9% Saline, assay 270 mg/ml",Yes
same,Precipitation (2 weeks),"[2]; 80:20 DMA in 0.9% Saline, assay 272 mg/ml",No
same,Precipitation (2 weeks),"[2]; 80:20 DMA in 0.9% Saline, assay 315 mg/ml",Yes
same,Assay,[2]; 80:20 DMA:0.9% Saline,386 mg/mL
same,Precipitation > 24 hours,[2]; 80:20 DMA:0.9% Saline,Yes
same,Precipitation (2 weeks),"[2]; 85:15 DMA in 0.9% Saline, assay 338 mg/ml",No
same,Assay,[2]; 90:10 DMA:0.9% Saline,483 mg/mL
same,Precipitation > 24 hours,[2]; 90:10 DMA:0.9% Saline,No
same,Assay,[2]; 95:5 DMA:0.9% Saline,518 mg/mL
same,Precipitation > 24 hours,[2]; 95:5 DMA:0.9% Saline,No
same,Assay,[2]; 100% DMA,592 mg/mL
same,Precipitation > 24 hours,[2]; 100% DMA,No
same,Assay,"[2]; Table 2a, 80:20 DMA solution in 0.9% Saline",304 mg/mL and 272 mg/mL and 315 mg/mL and 270 mg/mL
same,Assay,"[2]; Table 2a, 85:15 DMA solution in 0.9% Saline",338 mg/mL
same,treatment outcome in the clinical study,"[3]; 250 mg NUC-1031 in 80:20 DMA:0.9% saline solution, 5 ml vial",successful treatment
same,tolerability of injection,"[3]; 250 mg NUC-1031 in 80:20 DMA:0.9% saline, needed to be administered by a central line",pain on injection
same,stability for storage and transport,[4]; 250 mg/mL in 80:20 (by volume) DMA:0.9% saline,sufficiently stable for long term storage and transport
same,osmolarity,"[4]; 4, 8 and 10 mg/mL in 0.45% and 0.9% saline",acceptable for peripheral administration
same,time stable to precipitation and to degradation after dilution,"[4]; 4, 8 and 10 mg/mL, 0.45% and 0.9% saline, pH 4.5, 6.0 and 7.0, not stirred",48 h
same,solubility in water,Solubility in water,essentially insoluble in water
